Measurements taken from patent US9212201B2, “Antifungal and antiparasitic polyene macrolides” (priority 2010, dated 2015).
Values after ≈ are worked out from the molar mass of the structure shown.

Experiments:
Assay in all cases: In vitro antifungal susceptibility CLSI M27-A2 (MIC, MFC)
Type in all cases: cell-based
[1] = test system: Other Candida species (C. lipolytica, C. sake, C. sphaerica, C. norvegica); details: Other Candida spp. (4)
C. guilliermondii = C. guilliermondii (2)
C. tropicalis = C. tropicalis (10)
C. rugosa = C. rugosa (2)
C. parapsilosis = C. parapsilosis (10)
C. glabrata = C. glabrata (10)
C. kefyr = C. kefyr (10)
C. albicans = C. albicans (10)
C. krusei = C. krusei (10)
C. lusitaniae = C. lusitaniae (10)

With `C[C@@H](c1ncncc1F)[C@](O)(Cn1cncn1)c1ccc(F)cc1F` [Voriconazole, voriconazole] the “MIC Range” value [1] was less than 0.03 to 1.0 µg/mL, the MIC ([1]; read-out: GM (geometric mean MIC)) was 0.39 µg/mL (≈ 1.12 µM) and the MIC50 ([1]; read-out: MIC50) was 0.06 µg/mL (≈ 0.172 µM). The “MIC Range” value (C. guilliermondii) was 0.06 µg/mL (≈ 0.172 µM), the MIC (C. guilliermondii; Meyerozyma guilliermondii, read-out: GM (geometric mean MIC)) was 0.06 µg/mL (≈ 0.172 µM) and the “MIC Range” value (C. tropicalis) was less than 0.03 to 0.5 µg/mL. It also gave an MIC (C. tropicalis; Candida tropicalis, read-out: GM (geometric mean MIC)) of 0.13 µg/mL (≈ 0.372 µM), an MIC50 (C. tropicalis; Candida tropicalis, read-out: MIC50) of 0.06 µg/mL (≈ 0.172 µM) and an MIC90 (C. tropicalis; Candida tropicalis, read-out: MIC90) of 0.12 µg/mL (≈ 0.344 µM). For the same compound, the “MIC Range” value (C. rugosa) was 0.25 µg/mL (≈ 0.716 µM), the MIC (C. rugosa; Diutina rugosa, read-out: GM (geometric mean MIC)) was 0.25 µg/mL (≈ 0.716 µM) and the “MIC Range” value (C. parapsilosis) was less than 0.03 to 0.12 µg/mL. The MIC (C. parapsilosis; Lodderomyces parapsilosis, read-out: GM (geometric mean MIC)) was 0.04 µg/mL (≈ 0.115 µM), the MIC50 (C. parapsilosis; Lodderomyces parapsilosis, read-out: MIC50) was less than 0.03 µg/mL and the MIC90 (C. parapsilosis; Lodderomyces parapsilosis, read-out: MIC90) was 0.03 µg/mL (≈ 0.0859 µM). The “MIC Range” value (C. glabrata) was 0.12 to 2 µg/mL, the MIC (C. glabrata; Nakaseomyces glabratus, read-out: GM (geometric mean MIC)) was 0.56 µg/mL (≈ 1.6 µM) and the MIC50 (C. glabrata; Nakaseomyces glabratus, read-out: MIC50) was 0.5 µg/mL (≈ 1.43 µM). For the same compound, the MIC90 (C. glabrata; Nakaseomyces glabratus, read-out: MIC90) was 0.5 µg/mL (≈ 1.43 µM), the “MIC Range” value (C. kefyr) was less than 0.03 to 16 µg/mL and the MIC (C. kefyr; Kluyveromyces marxianus, read-out: GM (geometric mean MIC)) was 1.63 µg/mL (≈ 4.67 µM). For the same compound, the MIC50 (C. kefyr; Kluyveromyces marxianus, read-out: MIC50) was less than 0.03 µg/mL, the MIC90 (C. kefyr; Kluyveromyces marxianus, read-out: MIC90) was 0.6 µg/mL (≈ 1.72 µM) and the “MIC Range” value (C. albicans) was less than 0.03 to 0.25 µg/mL. It also gave an MIC (C. albicans; Candida albicans, read-out: GM (geometric mean MIC)) of 0.06 µg/mL (≈ 0.172 µM), an MIC50 (C. albicans; Candida albicans, read-out: MIC50) of 0.03 µg/mL (≈ 0.0859 µM) and an MIC90 (C. albicans; Candida albicans, read-out: MIC90) of 0.06 µg/mL (≈ 0.172 µM). The “MIC Range” value (C. krusei) was 0.25 to 0.5 µg/mL, the MIC (C. krusei; Pichia kudriavzevii, read-out: GM (geometric mean MIC)) was 0.425 µg/mL (≈ 1.22 µM) and the MIC50 (C. krusei; Pichia kudriavzevii, read-out: MIC50) was 0.25 µg/mL (≈ 0.716 µM). The MIC90 (C. krusei; Pichia kudriavzevii, read-out: MIC90) was 0.5 µg/mL (≈ 1.43 µM), the “MIC Range” value (C. lusitaniae) was less than 0.03 to 0.06 µg/mL and the MIC (C. lusitaniae; Clavispora lusitaniae, read-out: GM (geometric mean MIC)) was 0.03 µg/mL (≈ 0.0859 µM). The MIC50 (C. lusitaniae; Clavispora lusitaniae, read-out: MIC50) was less than 0.03 µg/mL and the MIC90 (C. lusitaniae; Clavispora lusitaniae, read-out: MIC90) was 0.03 µg/mL (≈ 0.0859 µM).
